Results: PubChem BioAssay AID292 (DTP/NCI, 2004)
Where “and” joins values, the source holds several entries; their conditions need not be identical. Equal entries are not always repeated. Toxic doses and inconclusive results are not listed. How the source made its calls: active means survival T/C of 150% or more; inactive means T/C below 125% in these data.

Test system: B6C3F1 mice, ip Sarcoma M5076, median survival T/C
Test: NCI In Vivo Anticancer Drug Screen. Data for tumor model Sarcoma M5076 (intraperitoneal) in B6C3F1 mice
Conditions: endpoint: median survival time, schedule: Q04DX004 (ip), higher = longer survival
How it was run: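 The readout is a ratio of survival in drug-treated animals to survival in animals given vehicle alone, taken in mice bearing a transplanted tumour line.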

[1] = dose: 3.75 mg/kg/injection, vehicle: saline with Tween-80
[2] = dose: 7.5 mg/kg/injection, vehicle: saline with Tween-80
[3] = dose: 15.0 mg/kg/injection, vehicle: saline with Tween-80
[4] = dose: 30.0 mg/kg/injection, vehicle: saline with Tween-80
[5] = dose: 60.0 mg/kg/injection, vehicle: saline with Tween-80
[6] = dose: 100.0 mg/kg/injection, vehicle: saline
[7] = dose: 200.0 mg/kg/injection, vehicle: saline
[8] = dose: 50.0 mg/kg/injection, vehicle: saline with Tween-80
[9] = dose: 100.0 mg/kg/injection, vehicle: saline with Tween-80
[10] = dose: 50.0 mg/kg/injection, vehicle: saline
[11] = dose: 200.0 mg/kg/injection, vehicle: saline with Tween-80
[12] = dose: 50.0 mg/kg/injection, vehicle: Klucel (hydroxypropylcellulose) (HPC)
[13] = dose: 100.0 mg/kg/injection, vehicle: Klucel (hydroxypropylcellulose) (HPC)
[14] = dose: 200.0 mg/kg/injection, vehicle: Klucel (hydroxypropylcellulose) (HPC)
[15] = dose: 400.0 mg/kg/injection, vehicle: Klucel (hydroxypropylcellulose) (HPC)

Measured: T/C

CCOc1ccc(C(C)c2cc3c(cc2OC)OCO3)cc1 (stereo unspecified)
inactive: dose: 62.5 mg/kg/injection, vehicle: distilled water + Tween-80 99 % of control and 102 % of control | dose: 125.0 mg/kg/injection, vehicle: distilled water + Tween-80 102 % of control and 124 % of control | dose: 250.0 mg/kg/injection, vehicle: distilled water + Tween-80 117 % of control

O=[N+]([O-])c1ccc(/C=C/C=C/C=C/C=C/c2ccc(S(=O)(=O)F)cc2Cl)c(Cl)c1
inactive: dose: 18.75 mg/kg/injection, vehicle: saline with Tween-80 95 % of control | dose: 37.5 mg/kg/injection, vehicle: saline with Tween-80 96 % of control | dose: 75.0 mg/kg/injection, vehicle: saline with Tween-80 98 % of control

C/C=C(\C)C(=O)OC1C(C)=C2C(C1OC(=O)CCCCC)C(C)(OC(C)=O)CC(OC(=O)CCC)C1(O)C2OC(=O)C1(C)O (stereo unspecified)
inactive: dose: 1.0 mg/kg/injection, vehicle: Klucel (hydroxypropylcellulose) (HPC) 97 % of control and 101 % of control | dose: 2.0 mg/kg/injection, vehicle: Klucel (hydroxypropylcellulose) (HPC) 92 % of control and 101 % of control

Nc1ccn(C2CC3[O][Sn]([c]4ccccc4)([c]4ccccc4)[O]CC3O2)c(=O)n1 (stereo unspecified)
inactive: dose: 25.0 mg/kg/injection, vehicle: distilled water + Tween-80 100 % of control | dose: 50.0 mg/kg/injection, vehicle: distilled water + Tween-80 100 % of control | dose: 100.0 mg/kg/injection, vehicle: distilled water + Tween-80 105 % of control | dose: 200.0 mg/kg/injection, vehicle: distilled water + Tween-80 100 % of control | dose: 400.0 mg/kg/injection, vehicle: distilled water + Tween-80 95 % of control

COc1cccc(Sc2ccc([N+](=O)[O-])c3no[n+]([O-])c23)c1
inactive: [1] 105 % of control | [2] 106 % of control | [3] 105 % of control | [4] 101 % of control | [5] 98 % of control

Nc1nc(N)c2cc(C=O)ccc2n1
inactive: dose: 3.13 mg/kg/injection, vehicle: water 91 % of control and 98 % of control | dose: 6.25 mg/kg/injection, vehicle: water 94 % of control | dose: 12.5 mg/kg/injection, vehicle: water 101 % of control and 103 % of control | dose: 50.0 mg/kg/injection, vehicle: water 88 % of control

CCOC(=O)Nc1cc2c(c(N)n1)N=C(c1ccc3ccccc3c1)CN2
inactive: [1] 110 % of control | [2] 108 % of control | [3] 120 % of control | [4] 111 % of control

NC(CCC(=O)NC(CS)C(=O)NCC(=O)O)C(=O)O (stereo unspecified)
inactive: dose: 75.0 mg/kg/injection, vehicle: saline 110 % of control | dose: 150.0 mg/kg/injection, vehicle: saline 100 % of control | dose: 300.0 mg/kg/injection, vehicle: saline 102 % of control | dose: 600.0 mg/kg/injection, vehicle: saline 90 % of control | dose: 1200.0 mg/kg/injection, vehicle: saline 90 % of control

COc1ccc(-n2cc[n+](C)c2/C=N\O)cc1
inactive: dose: 31.25 mg/kg/injection, vehicle: saline with Tween-80 101 % of control | dose: 62.5 mg/kg/injection, vehicle: saline with Tween-80 94 % of control | dose: 125.0 mg/kg/injection, vehicle: saline with Tween-80 114 % of control

O=C(O)C1CC(O)CN1 (stereo unspecified)
inactive: dose: 50.0 mg/kg/injection, vehicle: suspension in saline 110 % of control | dose: 100.0 mg/kg/injection, vehicle: suspension in saline 103 % of control | dose: 200.0 mg/kg/injection, vehicle: suspension in saline 97 % of control | dose: 400.0 mg/kg/injection, vehicle: suspension in saline 102 % of control | dose: 800.0 mg/kg/injection, vehicle: suspension in saline 100 % of control

Cn1nnc2c(C(N)=O)ncn2c1=O
active: [6] 156 % of control | [7] 170 % of control

N#Cc1c(N)[nH]c2ccc(Sc3ccccc3)cc12
inactive: dose: 6.25 mg/kg/injection, vehicle: saline with Tween-80 101 % of control | dose: 12.5 mg/kg/injection, vehicle: saline with Tween-80 112 % of control | [3] 108 % of control | dose: 25.0 mg/kg/injection, vehicle: saline with Tween-80 109 % of control | [4] 97 % of control | dose: 36.0 mg/kg/injection, vehicle: saline with Tween-80 104 % of control | [8] 114 % of control | [5] 95 % of control and 104 % of control | [9] 116 % of control | dose: 120.0 mg/kg/injection, vehicle: saline with Tween-80 110 % of control | dose: 240.0 mg/kg/injection, vehicle: saline with Tween-80 113 % of control

O=C1CN2CCN3CC(=O)NC(=O)[C@H]3[C@H]2C(=O)N1
inactive: dose: 28.13 mg/kg/injection, vehicle: saline with Tween-80 101 % of control | dose: 56.25 mg/kg/injection, vehicle: saline with Tween-80 98 % of control | dose: 112.5 mg/kg/injection, vehicle: saline with Tween-80 93 % of control | dose: 225.0 mg/kg/injection, vehicle: saline with Tween-80 92 % of control | dose: 450.0 mg/kg/injection, vehicle: saline with Tween-80 91 % of control

CCN(CC)CCn1c2c(c3ccc(OC)cc31)CCN1CC3CC(OC(=O)c4cc(OC)c(OC)c(OC)c4)C(OC)C(C(=O)OC)C3CC21 (stereo unspecified)
inactive: dose: 25.0 mg/kg/injection, vehicle: saline 105 % of control | [10] 97 % of control | [6] 97 % of control | [7] 86 % of control

CCc1c(C)c(SC)n(C)c(=O)c1C#N
inactive: [8] 111 % of control | [9] 111 % of control | [11] 111 % of control | dose: 400.0 mg/kg/injection, vehicle: saline with Tween-80 96 % of control

NCCNCC(O)CO (stereo unspecified)
inactive: [10] 99 % of control | [6] 103 % of control | [7] 103 % of control | dose: 400.0 mg/kg/injection, vehicle: saline 99 % of control | dose: 800.0 mg/kg/injection, vehicle: saline 95 % of control

Cc1ccccc1C1C(C#N)C(=O)NC(=O)C1C#N (stereo unspecified)
inactive: [12] 102 % of control | [13] 105 % of control | [14] 102 % of control | [15] 98 % of control

COc1ccc(C(C)c2cc3c(cc2OC)OCO3)cc1 (stereo unspecified)
inactive: [8] 115 % of control | [11] 110 % of control

CCC1(O)C(=O)OCc2c1cc1n(c2=O)Cc2cc3cc(N)ccc3nc2-1 (stereo unspecified)
active: dose: 7.5 mg/kg/injection, vehicle: suspension in saline 160 % of control | dose: 9.0 mg/kg/injection, vehicle: suspension in saline 174 % of control | dose: 15.0 mg/kg/injection, vehicle: suspension in saline 170 % of control and 231 % of control | dose: 25.0 mg/kg/injection, vehicle: suspension in saline 150 % of control
inactive: dose: 42.0 mg/kg/injection, vehicle: suspension in saline 90 % of control

COc1ccc(CCN2C(=O)C(=O)N(c3ccc(Cl)c(Cl)c3)C2=O)cc1OC
inactive: [12] 99 % of control | [13] 98 % of control | [14] 94 % of control | [15] 89 % of control | dose: 800.0 mg/kg/injection, vehicle: Klucel (hydroxypropylcellulose) (HPC) 93 % of control
